Results as given in the supplement of paper PMC11451515.

How the values were obtained:
Details in all cases: 48 h
P12-Ichikawa [1] = assay: AUC of viability dose-response curve (% viability x log10 dose units); higher = less sensitive
Method in brief: (§1)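 Leukemia cells adapted to each medium were seeded at 500 or 1000 cells/well in 1536-well plates and dosed with library compounds in DMSO at 11 threefold doses from 47 μM to 0.79 nM for 48 h at 37°C. CellTiter-Glo One luminescence was normalised per plate to DMSO and cell-free wells, then fitted with a four-parameter log-logistic model over log10 doses. Area under the curve was taken from this fit by the trapezoidal rule, with curves above full viability scaled and curves failing quality control removed.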

NOMO1 [2] = assay: as above
Method in brief: as §1

SEM cells [3] = assay: as above
Method in brief: as §1

P12-Ichikawa [4] = assay: cell viability relative to DMSO control; higher = less cytotoxic
Method in brief: (§2)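 Viability was expressed as a per-plate percentage of DMSO wells, with cell-free wells as background. Leukemia cells (NOMO1 or SEM at 500 cells/well, P12-Ichikawa at 1000 cells/well) were adapted for at least four passages in each medium and seeded in 1536-well plates (5 μl). Library compounds in DMSO were pin-dosed over an 11-point threefold series from 47 μM to 0.79 nM, and CellTiter-Glo One luminescence was read after 48 h at 37°C.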

NOMO1 [5] = assay: as above
Method in brief: as §2

SEM cells [6] = assay: as above
Method in brief: as §2

CC1=CC=C(C=C1)\C2=N\C3=CC=C(Cl)C=C3OC2
AUC of viability dose-response curve
Details	NOMO1 [2]	P12-Ichikawa [1]	SEM cells [3]
HPLM + 10% dialyzed FBS	451	439	427
RPMI 5 mM glucose + 10% FBS	439	424	418
RPMI 5 mM glucose + 10% dialyzed FBS	457	440	392

O=c1oc2c(O)c(O)cc3c(=O)oc4c(O)c(O)cc1c4c23
AUC of viability dose-response curve
Details	NOMO1 [2]	P12-Ichikawa [1]	SEM cells [3]
HPLM + 10% dialyzed FBS	455	444	471
RPMI 5 mM glucose + 10% FBS	454	452	467
RPMI 5 mM glucose + 10% dialyzed FBS	466	458	451

C[C@]12CC(=O)[C@H]3[C@@H](CC\C4=C\C(=O)\C=C/[C@]34C)[C@@H]1CC[C@]2(O)C(=O)CO
AUC of viability dose-response curve
Details	NOMO1 [2]	P12-Ichikawa [1]	SEM cells [3]
HPLM + 10% dialyzed FBS	472	458	470
RPMI 5 mM glucose + 10% FBS	461	461	457
RPMI 5 mM glucose + 10% dialyzed FBS	471	438	469

CC[S+](=O)([O-])N1CC(CC#N)(n2cc(-c3ncnc4[nH]ccc34)cn2)C1
AUC of viability dose-response curve
Details	NOMO1 [2]	P12-Ichikawa [1]	SEM cells [3]
HPLM + 10% dialyzed FBS	441	452	449
RPMI 5 mM glucose + 10% FBS	451	454	457
RPMI 5 mM glucose + 10% dialyzed FBS	471	443	450

C[S+](=O)([O-])CCNCc1ccc(-c2ccc3ncnc(Nc4ccc(OCc5cccc(F)c5)c(Cl)c4)c3c2)o1
AUC of viability dose-response curve
Details	NOMO1 [2]	P12-Ichikawa [1]	SEM cells [3]
HPLM + 10% dialyzed FBS	456	448	442
RPMI 5 mM glucose + 10% FBS	451	453	418
RPMI 5 mM glucose + 10% dialyzed FBS	444	429	440

COC1=CC=C2CN(C)CC[C@@]34\C=C/[C@H](O)C[C@@H]3OC1=C24
AUC of viability dose-response curve
Details	HPLM + 10% dialyzed FBS	RPMI 5 mM glucose + 10% FBS	RPMI 5 mM glucose + 10% dialyzed FBS
NOMO1 [2]	437	468	451
P12-Ichikawa [1]	449	456	454

cell viability [%]
Details	NOMO1 [5]	P12-Ichikawa [4]	SEM cells [6]
HPLM + 10% dialyzed FBS, 0.000781 µM	–	–	119
HPLM + 10% dialyzed FBS, 0.00234 µM	–	–	113
HPLM + 10% dialyzed FBS, 0.00702 µM	–	–	115
HPLM + 10% dialyzed FBS, 0.0211 µM	–	–	27
HPLM + 10% dialyzed FBS, 0.0632 µM	–	–	117
HPLM + 10% dialyzed FBS, 0.19 µM	–	–	111
HPLM + 10% dialyzed FBS, 0.569 µM	–	–	114
HPLM + 10% dialyzed FBS, 1.71 µM	–	–	126
HPLM + 10% dialyzed FBS, 5.12 µM	–	–	103
HPLM + 10% dialyzed FBS, 15.4 µM	–	–	119
HPLM + 10% dialyzed FBS, 46.1 µM	–	–	103
RPMI 5 mM glucose + 10% FBS, 0.000781 µM	128	–	–
RPMI 5 mM glucose + 10% FBS, 0.00234 µM	124	–	–
RPMI 5 mM glucose + 10% FBS, 0.00702 µM	120	–	–
RPMI 5 mM glucose + 10% FBS, 0.0211 µM	112	–	–
RPMI 5 mM glucose + 10% FBS, 0.0632 µM	124	–	–
RPMI 5 mM glucose + 10% FBS, 0.19 µM	130	–	–
RPMI 5 mM glucose + 10% FBS, 0.569 µM	118	–	–
RPMI 5 mM glucose + 10% FBS, 1.71 µM	123	–	–
RPMI 5 mM glucose + 10% FBS, 5.12 µM	126	–	–
RPMI 5 mM glucose + 10% FBS, 15.4 µM	108	–	–
RPMI 5 mM glucose + 10% FBS, 46.1 µM	104	–	–
RPMI 5 mM glucose + 10% dialyzed FBS, 0.000781 µM	126	121	108
RPMI 5 mM glucose + 10% dialyzed FBS, 0.00234 µM	121	124	111
RPMI 5 mM glucose + 10% dialyzed FBS, 0.00702 µM	118	118	126
RPMI 5 mM glucose + 10% dialyzed FBS, 0.0211 µM	119	117	25.3
RPMI 5 mM glucose + 10% dialyzed FBS, 0.0632 µM	118	130	114
RPMI 5 mM glucose + 10% dialyzed FBS, 0.19 µM	129	120	125
RPMI 5 mM glucose + 10% dialyzed FBS, 0.569 µM	120	119	104
RPMI 5 mM glucose + 10% dialyzed FBS, 1.71 µM	115	121	107
RPMI 5 mM glucose + 10% dialyzed FBS, 5.12 µM	110	82.6	96.3
RPMI 5 mM glucose + 10% dialyzed FBS, 15.4 µM	108	102	100
RPMI 5 mM glucose + 10% dialyzed FBS, 46.1 µM	113	111	99.3

COC(=O)N1CC2(CC2)C[C@H](C(=O)NO)[C@H]1C(=O)N1CCN(c2ccccc2)CC1
AUC of viability dose-response curve
Details	HPLM + 10% dialyzed FBS	RPMI 5 mM glucose + 10% FBS	RPMI 5 mM glucose + 10% dialyzed FBS
NOMO1 [2]	297	310	373
P12-Ichikawa [1]	290	357	324

cell viability [%]
Details	P12-Ichikawa [4]	SEM cells [6]
HPLM + 10% dialyzed FBS, 0.000781 µM	122	110
HPLM + 10% dialyzed FBS, 0.00234 µM	133	128
HPLM + 10% dialyzed FBS, 0.00702 µM	119	123
HPLM + 10% dialyzed FBS, 0.0211 µM	125	116
HPLM + 10% dialyzed FBS, 0.0632 µM	117	128
HPLM + 10% dialyzed FBS, 0.19 µM	114	121
HPLM + 10% dialyzed FBS, 0.569 µM	24.5	113
HPLM + 10% dialyzed FBS, 1.71 µM	30.1	40.3
HPLM + 10% dialyzed FBS, 5.12 µM	16.7	19.8
HPLM + 10% dialyzed FBS, 15.4 µM	10.6	16.5
HPLM + 10% dialyzed FBS, 46.1 µM	7.08	6.78
RPMI 5 mM glucose + 10% FBS, 0.000781 µM	121	–
RPMI 5 mM glucose + 10% FBS, 0.00234 µM	132	–
RPMI 5 mM glucose + 10% FBS, 0.00702 µM	119	–
RPMI 5 mM glucose + 10% FBS, 0.0211 µM	129	–
RPMI 5 mM glucose + 10% FBS, 0.0632 µM	136	–
RPMI 5 mM glucose + 10% FBS, 0.19 µM	143	–
RPMI 5 mM glucose + 10% FBS, 0.569 µM	122	–
RPMI 5 mM glucose + 10% FBS, 1.71 µM	99.6	–
RPMI 5 mM glucose + 10% FBS, 5.12 µM	14.2	–
RPMI 5 mM glucose + 10% FBS, 15.4 µM	9.97	–
RPMI 5 mM glucose + 10% FBS, 46.1 µM	7.58	–

COc1cc2c(Oc3ccc4[nH]c(C)cc4c3F)ncnc2cc1OCCCN1CCCC1
AUC of viability dose-response curve
Details	NOMO1 [2]	P12-Ichikawa [1]	SEM cells [3]
HPLM + 10% dialyzed FBS	453	448	382
RPMI 5 mM glucose + 10% FBS	452	449	380
RPMI 5 mM glucose + 10% dialyzed FBS	463	448	356

CC(=O)[C@]1(O)Cc2c(O)c3c(c(O)c2[C@@H](O[C@H]2C[C@H](N)[C@H](O)[C@H](C)O2)C1)C(=O)c1ccccc1C3=O
AUC of viability dose-response curve
Details	HPLM + 10% dialyzed FBS	RPMI 5 mM glucose + 10% FBS	RPMI 5 mM glucose + 10% dialyzed FBS
NOMO1 [2]	364	367	374
SEM cells [3]	320	313	313

cell viability [%], SEM cells [6]
Details	HPLM + 10% dialyzed FBS	RPMI 5 mM glucose + 10% FBS	RPMI 5 mM glucose + 10% dialyzed FBS
0.000781 µM	118	104	126
0.00234 µM	127	117	110
0.00702 µM	123	113	116
0.0211 µM	124	104	125
0.0632 µM	128	97.8	113
0.19 µM	119	101	97.1
0.569 µM	98.8	80.3	90.3
1.71 µM	34.5	18.9	31.2
5.12 µM	8.24	7.45	6.01
15.4 µM	7.58	6.93	5.83
46.1 µM	6.23	4.81	4.8

COc1ccc2c(c1OC)C(=O)O[C@H]2[C@H]1c2c(cc3c(c2OC)OCO3)CCN1C
AUC of viability dose-response curve
Details	NOMO1 [2]	P12-Ichikawa [1]	SEM cells [3]
HPLM + 10% dialyzed FBS	246	284	263
RPMI 5 mM glucose + 10% FBS	273	277	233
RPMI 5 mM glucose + 10% dialyzed FBS	277	294	247

C[C@H]1O[C@H]([C@H](O)[C@@H]1O)N2\C=C(F)/C(=O)NC2=O
AUC of viability dose-response curve
Details	NOMO1 [2]	P12-Ichikawa [1]	SEM cells [3]
HPLM + 10% dialyzed FBS	441	443	460
RPMI 5 mM glucose + 10% FBS	460	440	454
RPMI 5 mM glucose + 10% dialyzed FBS	444	442	436
